From patent US20080306094A1 (priority 2005, published 2008)
Where two headings read alike, the source gives them in different places.

How the values were obtained:
[1] = tested on: HUVEC; test: HUVEC assay, endothelial cell proliferation; type: cell-based; conditions: Homo sapiens
[2] = tested on: Calu-6 tumour xenograft; test: Calu-6 tumour xenograft in vivo solid tumour model; conditions: once-daily oral, 28 days

COc1cc2c(Oc3ccc4[nH]c(C)cc4c3F)ncnc2cc1OCCCN1CCCC1 [AZD2171, 4-(4-fluoro-2-methyl-1H-indol-5-yloxy)-6-methoxy-7-(3-(pyrrolidin-1-yl)propoxy)quinazoline]
IC50 ([1]; VEGF-stimulated, read-out: IC50, VEGF-stimulated endothelial cell proliferation): 0.4 ± 0.2 nM | IC50 ([1]; basal, read-out: IC50, basal endothelial cell proliferation): > 500 nM | inhibition of growth of Calu-6 tumour xenograft ([2]; 1.5 mg/kg/day, P<0.01 one-tailed t test): 49% | inhibition of growth of Calu-6 tumour xenograft ([2]; 3 mg/kg/day, P<0.0001 one-tailed t test): 69% | inhibition of growth of Calu-6 tumour xenograft ([2]; 6 mg/kg/day, P<0.0001 one-tailed t test): 91%
